| melting point [°C] | SMILES |
| --- | --- |
| 170 to 173 | CC(C)CC(=O)Nc1cccc(-c2ccnc3c(-c4cccc(CN5CCOCC5)c4)cnn23)c1 |
| 78 to 79 | CSC(=NCCSCc1ccc(CN(C)C)o1)NC#N |
| 91 to 93 | CC(C=CC1=C(C)C(=O)CC1(C)C)=CC=O |
| 222 to 223 | Cn1nc(-c2cc3nccnc3[nH]2)cc1-c1ccccc1 |
| 94 to 95 | COC(=O)c1cccc(CCN(C)CCCC(C#N)(C(=O)OC)c2ccc(OC)c(OC)c2)c1 (stereo not given) |
| 227 to 229 | Cc1ccc(C(=O)Nc2ccc3c(c2NC(=O)c2ccc(C)cc2)C(=O)c2ccccc2C3=O)cc1 |
| 242 to 244 | Cc1cc2c(-c3ccccc3Cl)c(NC(=O)Nc3ccc(F)cc3F)c(=O)n(C)c2cc1C |
| 88 | CCCC(Oc1ccc2c(-c3ccc(Cl)cc3)noc2c1)C(=O)OCC (stereo not given) |
| 172 to 173 | O=C(CCl)Nc1cc(Br)cc([N+](=O)[O-])c1NC(=O)CCl |
| 88.5 to 91.5 | COc1ccc(-c2nc(-c3cccn3CC(=O)OC(C)C(C)C)sc2-c2ccc(OC)cc2)cc1 (stereo not given) |
| 168 to 178 | COc1ccc2nc(-n3ccnc3)nc(NCCSC)c2c1 |
| 80 to 83 | CC(C)(C)C(O)C(=O)CCn1cncn1 (stereo not given) |
| 86 to 87 | CCNC(=O)c1c(F)cccc1[Si](C)(C)C |
| 177 to 179 | O=C(Nc1cc(Cl)ccc1C(=O)O)NS(=O)(=O)c1ccc(OCCN2CCN(c3ccccc3)CC2)cc1 |
| 195 to 197 | COc1ccc(-c2ccc3c(c2)C=C(C(=O)Nc2ccc(CN(C)C4CCOCC4)cc2)CCS3(=O)=O)cc1OC |
| 180 to 182 | CCOC(=O)C1=Cc2cc(Cl)cnc2NC1C(F)(F)F (stereo not given) |
| > 250 | Cc1c(Br)c(=O)n(C2CCCC2)c2nc(Nc3ccc(N4CCN(C(=O)OC(C)(C)C)CC4)cn3)ncc12 |
| 140 to 141 | CCOC(=O)C1=C(C)NC(CCn2ccnc2)=C(C(=O)OCC)C1c1ccccc1[N+](=O)[O-] (stereo not given) |
| 64 to 66 | CC=C(C(=O)OC)c1ccccc1CBr |
| 77 to 79 | CCN(CC)c1nc(Cl)nc(Cl)n1 |
| 160 to 161 | COC(=O)CCCS(=O)c1c(Cc2cccc3ccccc23)sc2c1c(=O)n(C)c(=O)n2CC(C)C (stereo not given) |
| 121 to 123 | Cc1cc(OCCCN2CCC[C@H]2C)ccc1C1=NNC(=O)CC1 |
| 210 | COc1c(C)cc2c(c1C)Cc1c-2[nH]c2c(C)cc(C)cc12 |
| 188 to 191 | CC(C)Oc1nc(N)nc2c1ncn2C1C=CC(CO)C1 (stereo not given) |

| melting point [°C] | SMILES |
| --- | --- |
| 224 to 226 | COC1C2=C3C(=CN1OC)OCCC3CC(C(N)=O)C2 (stereo not given) |
| 143 to 145 | NC(=S)N(c1ccccc1)c1cccc(NNC=O)c1 |
| 184 to 186 | Cc1nc(-c2nc(-c3ccc(F)cc3)c(-c3ccc(S(C)(=O)=O)cc3)s2)cs1 |
| 202 | O=C(Cc1ccccn1)c1nc2ccccc2[nH]1 |
| 83 to 87 | COC(=O)C1=C(C)NC(C)=C(C(=O)OCCN2CCN(C(c3ccc(C)cc3)c3ccc(C)cc3)CC2)C1c1cccc([N+](=O)[O-])c1 (stereo not given) |
| 148 to 150 | Nc1sc2c(c1C(=O)c1ccc(Cl)cc1)CCN(CCc1ccccc1)C2 |
| 99 to 100 | CCOC(=O)c1c(-c2ccc(F)cc2)c2ccccn2c1C(C)C |
| 93 to 94 | CS(=O)(=O)c1ccc(Oc2cc(OCc3cccc(Cl)n3)c3[nH]c(C4=NCC(CCO)S4)cc3c2)cc1 (stereo not given) |
| 250 to 252 | CCOC(=O)c1nnc2ccc(NC(=O)OCc3ccccc3)cc2c1O |
| 132 | CCOC(=O)c1cnn(-c2cccc(Cl)c2)c1C(N)=O |
| > 310 | Cc1nc(=O)[nH]c2cc(Cl)c(NC(N)=O)cc12 |
| 199 | Cc1cc(C(=O)N[C@H]2CC[C@H](CCN3CCN(c4nccc5c4OCC5)CC3)CC2)on1 |
| 153 to 156 | CN1c2ccc(Cl)cc2C(c2ccccc2)=Nc2cccnc21 |
| 292 to 293 | Cc1[nH]n(C2CCCCC2)c2nc(-c3ccncc3)nc(=O)c1-2 |
| 70 to 73 | CSc1ccc(-c2ccc(C(F)(F)F)cc2)nc1F |
| 174 | C=Cn1ccnc1C(O)(c1ccc(Cl)cc1)c1ccc(Cl)cc1 |
| 218 | CN(Cc1cccc(-c2ccc(CC3SC(=O)NC3=O)cc2)c1)C(=O)c1ccc2cc(O)ccc2c1 (stereo not given) |
| 170 | Nc1ccccc1-c1cccc(C(=O)O)c1 |
| 81 | CC(C)(C)c1ccc(O)c(C=O)c1 |
| 148 to 150 | COc1cc(-c2cc(C(F)(F)F)nn2-c2ccc(S(C)(=O)=O)c(F)c2)ccc1-c1cocn1 |
| 108 to 110 | CC(C)(C)OC(=O)NCC1CN(C(c2ccccc2)c2ccccc2)C1 |
| 89 | O=S(=O)(Cc1cccc2ccccc12)c1ccccc1 |
| 192 to 193 | CCCCCCCC=CC1=Nc2ccc(F)cc2C(=O)C1C (stereo not given) |
| 191 to 192 | O=C(CS(=O)Cc1ccc(Cl)c(Cl)c1)NO (stereo not given) |

| melting point [°C] | SMILES |
| --- | --- |
| 298 | CCOC(=O)c1cn(-c2c[nH]nn2)c2cc(F)c(F)cc2c1=O |
| 270 to 271 | N#Cc1ccc2oc3cc(O)ccc3c2c1 |
| 168 to 170 | Cc1oc(=O)oc1COC(=O)c1oc2cccc(O)c2c1C |
| 77 to 79 | O=C1CC2(c3ccccc3)CCCC2C(=O)N1Cc1ccccc1 (stereo not given) |
| 158 | CN1C(=O)C(C2=COc3cc4ccccc4cc3O2)=C(c2cn(C(=O)OC(C)(C)C)c3ccccc23)C1=O |
| 112 to 114 | Cc1cc(F)ccc1Nc1nc(N(C)c2ccccc2)c2cc(OCCN(C)C)ccc2n1 |
| 212 to 215 | CCOC(=O)C1=C(C)NC(C)=C(C(=O)OC(C)C)C1c1csc2ccncc12 (stereo not given) |
| 62 to 64 | COc1cc(Cl)c(Nc2nc(C)ccc2S(=O)(=O)c2ccc(OCc3ccccc3OC)cc2)cc1F |
| 122 to 125 | CCCn1c(=O)c2ccc(NC(=O)CC3CCCC3)cc2n1Cc1ccc(C(=O)O)cc1OC |
| 74 to 76 | Clc1ccc(C2CNCCN2)cc1Cl (stereo not given) |
| 192 to 194 | N#CNC(=NC1CCN(Cc2ccccc2)CC1)N1CCc2ccccc2CC1 |
| 116 to 118 | COC(=O)/C=C/c1cc(-c2ccc(C)cc2)cs1 |
| 88 | C#CCOc1ccc(C(=O)OC)c(OC)c1 |
| 93 to 95 | CC(OC1CCCCO1)C(O)(Cn1cncn1)c1ccc(F)cc1F (stereo not given) |
| 200 to 202 | COc1ccc(C=CC(=O)O)cc1-c1cc2c(cc1OCc1ccccc1)C(C)(C)CCC2(C)C |
| 180 to 182 | CC1=C(/C=C/S(=O)(=O)NC(C)C)C(c2cccc([N+](=O)[O-])c2)C(C(=O)OCC(F)(F)F)=C(C)N1 (stereo not given) |
| 264 to 266 | CCC(=O)Nc1c(C(=O)c2cc(Cl)ccc2NC(C)=O)[nH]c2cc(Cl)ccc12 |
| 105 | COC(=O)c1cc(-c2ccc(C)cc2)n(Cc2ccc(Cl)cc2Cl)n1 |
| 139 to 141 | COc1ccc(CSc2ccc(S(N)(=O)=O)s2)cc1 |
| 94.5 to 96.5 | CCc1ccc(-c2nn(C)c(=O)c3ccccc23)c(CC)c1 |
| 133 to 135 | C=C1Oc2cc(OS(=O)(=O)C(F)(F)F)ccc2C(=O)C1c1ccccc1 (stereo not given) |
| 143 to 144 | O=[N+]([O-])c1ccc(Br)cc1CS(=O)(=O)c1ccccc1 |
| 150 to 159 | CCNC(=O)C=CC(C)=CC=C(C)c1ccc2c(c1)C(C)(C)CCC2(C)C |
| 126 to 127 | CCOC(=O)C1Cc2ccc(C(=O)c3ccc(NC(C)=O)c(Cl)c3)cc2C1 (stereo not given) |

| melting point [°C] | SMILES |
| --- | --- |
| 135 to 140 | O=C(c1cc(-c2ccccc2)ccn1)N(O)Cc1ccc(F)cc1 |
| 178 to 179 | CC1(C)OC(c2ccc(S(C)(=O)=O)cc2)=C(c2ccc3c(c2)OCO3)C1=O |
| 72.5 to 73.5 | O=C(SCSc1c[nH]nn1)c1ccccc1 |
| 126 to 128 | COc1ccc(C)cc1NC(=O)Nc1ccc(N2CCN(C(=O)C3CC4CCC3C4)CC2)cc1 (stereo not given) |
| 178 | CC1(C)Oc2ccc(C#N)cc2C(n2ccccc2=O)C1=O (stereo not given) |
| 83 to 86 | Cc1ncccc1C(C#N)N1CCN(C(=O)CC(NC(=O)Cc2cccc(OCc3ccc4ccccc4n3)c2)c2ccccc2)CC1 (stereo not given) |
| 195 to 198 | Nc1nc2c(ncn2CCC(COC=O)COC=O)c(=O)[nH]1 |
| 125 to 128 | Cc1ccc(-c2ncc3c(n2)CCCC3)nc1Br |
| 193 to 196 | COc1ccc(C)c(NC(=O)CC2C3CC4CC(C3)CC2C4)c1 (stereo not given) |
| 106 to 108 | Nc1cccc(S(=O)(=O)NC(=O)C(F)(F)F)c1 |
| 76 | COc1ccc(OCc2ccccc2)c2[nH]c(C)c(C)c12 |
| 135 to 157 | O=C(NC(CO)CO)c1cccc(-c2ccc3c(c2)C(c2ccc(Cl)cc2Cl)CC3)c1 (stereo not given) |
| 108 | CNC(=O)N(OC)c1ccc(Oc2ccc3sncc3c2)cc1 |
| 211 to 213 | COc1cccc([C@H]2O[C@H](CC(=O)Nc3nc(C)c(C(=O)OC(C)(C)C)s3)C(=O)N(CC(C)(C)COC(C)=O)c3ccc(Cl)cc32)c1OC |
| 126 | CCc1nnc(-c2cccc([N+](=O)[O-])c2)n1-c1ccc(OC)cc1 |
| 183 | Cc1ccc(N2C(=O)C3=C(SCCO3)C2OC(=O)N2CCN(C)CC2)nc1 (stereo not given) |
| 151 to 152 | Cc1cc(C2(C(F)(F)F)CN(c3ccc(C(=O)NCC(F)(F)F)cc3)CO2)ccc1F (stereo not given) |
| 134 to 136 | COc1ccc2ccc(C(N)=O)c(OC)c2c1 |
| 54.8 | COC(=O)C(C)Oc1ccc(C(C)=O)cc1 (stereo not given) |
| 179 to 180 | CN(C)C=C1CN=C(c2ccccc2)c2cc(Cl)ccc2C1=O |
| 141 to 142 | COc1ccc2nc(NC(=O)COC(=O)C(C)C)sc2c1 |
| 40 to 41 | Cc1ccc(-c2cccnc2)nc1 |
| > 300 | Cn1ccc(-c2[nH]nc3c2C(=O)c2c(NC(N)=O)cccc2-3)c1 |
| 128 | C1=CNC=c2ccccc2=C1 |

| SMILES | melting point [°C] |
| --- | --- |
| OC1(c2ccc(F)cc2)CCC2CNCCC2C1 (stereo not given) | 174 to 175 |
| N=C1N(Cc2ccc(Cl)nc2)CCN1[N+](=O)[O-] | 81 |
| CCCN(CCC)C1CCc2cc(NC(C)=O)ccc2C1 (stereo not given) | 119 to 121 |
| CN1CCC23COC(C)(C)OC2C1Cc1ccc(O)cc13 (stereo not given) | 237 to 238 |
